Read-outs that look alike come from different tables or passages of the source.
What was measured:
mouse = test: Effect of gangliosides on acute Vincristine toxicity (acute lethality, single i.v. dose); type: in vivo; details: Vincristine 3.0 mg/kg e.v. alone
Procedure: The mice were subdivided into groups of not more than 8 in standard cages. Food and water were provided ad lib. The animals were housed in rooms under strictly controlled conditions.
1 mg of Vincristine was diluted to obtain the concentration necessary to inject 0.1 ml/10 g. body weight.
A solution of gangliosides was prepared by addition of sterile distilled water in a quantity sufficient to obtain a final concentration of 200 mg/kg in a volume of 0.2 ml. This dose was administrated to mice weighing about 20g.

[1] = Effect of ganglioside treatment on chronic Vincristine toxicity (lethality after sub-chronic pre-treatment or post-treatment); type: in vivo, mouse; details: mouse, in vivo, iv, Table 4, read-out: Mortality rate, %
Procedure: (§1) Male mice CD-1 (ICR) BR (Charles River, Italy) weighing 25-30 g were used for the whole experiment. The animals were housed in groups of 10 per cage and fed with standard laboratory chow and tap water ad libitum. The animals were housed at constant room temperature (21°±1° C.) and relative humidity (60%) with controlled cycles of light/dark (light from 8.00 a.m. to 8.00 p.m.).
(§2) Vincristine sulphate (Lilly) was dissolved in saline and injected i.v. in a dose volume of 10 ml/kg, whereas the gangliosides were solubilized in a phosphate buffer (0.01M; pH 7.5) containing 0.8% of NaCl and administered i.m. at a dose volume of 5 ml/kg.
(§3) The ganglioside mixture (or vehicle) was administered i.m. daily for 5 consecutive days at different doses (50, 100 and 200 mg/kg) and Vincristine was injected i.v. 5 hours after the last treatment with gangliosides (or vehicle) in doses of 2.4 and 2.6 mg/kg.
(§4) The ganglioside mixture (or vehicle) was administered i.m. in doses of 200 mg/kg 5 hours before i.v. treatment with Vincristine for 5 consecutive days
(§5) The doses of Vincristine were of 2.2, 2.4 and 2.6 mg/kg.
(§6) The mortality rate was estimated by the number of animals that died within the first 14 days of Vincristine treatment.
(§7) The statistical significance between mortality rates was assessed by means of Fisher's exact probability test.
(§8) The results of the tests are reported in Tables 3 and 4 and graphed in FIG. 1. On the basis of the mortality rate curve after administration of Vincristine, doses between 2 and 3 mg/kg were chosen for the investigation with gangliosides. The first experiment compared the effects of ganglioside treatment before and after Vincristine injection.
(§9) In the case of post-treatment, a single administration of gangliosides was given in order to exclude the possibility that the greater efficacy of pre-treatment with gangliosides in reducing Vincristine toxicity, might only be due to the last ganglioside injection.

Male mice CD-1 (ICR) BR = test: as above; type: in vivo, mouse; details: for Mortality rate: Table 3; for Mortality rate, No.: Table 4
Procedure: as §1, §2, §3, §4, §5, §6, §7, §8, §9

sarcoma S180 = test: Antitumoral effect of Vincristine with and without CRONASSIAL, sarcoma S180; type: in vivo, mouse; details: S180, host SN; VCR 0,5 mg/kg i.p. days 1-6
Procedure: Male Swiss Schneider mice weighing 27 g. were used for experiments on sarcoma S180.
This tumor has been transplanted into the same strain of mouse in this laboratory for over 10 years. The transplant was carried out by s.c.inoculation of 0.1 ml of a tumoral homogenate obtained by finely mincing viable tumoral tissue, passed repeatedly through a 26 gauge needle into a sterile Petri dish. 0.1 ml of Penicillin (20,000 u/ml) and streptomycin (20,000 u/ml) were added to the solution. 5 mg of Neomycin were also added.
(§10) A standard vial containing 1 mg of Vincristine was used. It was prepared with a suitable volume of diluting solution to give the final concentration required for injection into 0.1 ml/10 g. of body weight.
(§11) A solution of this substance, which is a mixture of four gangliosides, was prepared by adding a volume of sterile distilled water suffi- cient to give a concentration of 200 mg/kg in a volume of 0.2 ml. This dose is administered to mice weighing approximately 20 g.

melanoma B16 = test: Antitumoral effect of Vincristine with and without CRONASSIAL, melanoma B16; type: in vivo, mouse; details: B16, host C57B1; VCR 0,5 mg/kg i.p. days 1-4, 7-11
Procedure: Female C57 B1 mice weighing 20 g. were used for experiments on melanoma B16.
This tumor was prepared by inoculation in the same way as that used for sarcoma S180.
as §10, §11

leukemia L1210 = test: Antitumoral effect of Vincristine with and without CRONASSIAL, leukemia L1210; type: in vivo, mouse
Procedure: Male BDF1 mice weighing 30 g. were used for experiments on leukemia L1210.
Spleens were removed from the animals 7 days after inoculation of L1210 cells and were then finely minced with isotonic saline 1:100. 0.1 ml of this spleen and leukemia L1210 cell suspension was then injected s.c. into the flank of each BDF1 mouse.
as §10, §11

VCR-induced neuropathy = details: electrophysiology, studies in man; cited from earlier work
[2] = tested on: 3T3, neuroblastoma, glioma; details: exogenous addition; cited from earlier work
[3] = subchronic vehicle + VCR 2.4 mg/kg i.v.
[4] = subchronic vehicle + VCR 2.6 mg/kg i.v.

Molecule	No. Survivors at 30 days (mouse)	mortality at 336 h [1, 3] [%]	mortality at 336 h [1, 4] [%]	Mortality rate (Male mice CD-1 (ICR) BR; vehicle + VCR 2.4 mg/kg i.v.)	Mortality rate (Male mice CD-1 (ICR) BR; vehicle + VCR 2.6 mg/kg i.v.)	Mortality rate, No. (Male mice CD-1 (ICR) BR; [3])	Mortality rate, No. (Male mice CD-1 (ICR) BR; [4])	Mean tumor weight (sarcoma S180)	Mean tumor weight (melanoma B16)	Mean survival time (leukemia L1210; L1210, host BDF1, VCR 1,0 mg/kg i.p. days 1-3)	average survival time (leukemia L1210; L1210, Vincristine alone) [days]	type of VCR-induced neuropathy (VCR-induced neuropathy)	cell growth and contact inhibition [2]
CC[C@]1(O)C[C@H]2CN(CCc3c([nH]c4ccccc34)[C@@](C(=O)OC)(c3cc4c(cc3OC)N(C=O)[C@H]3[C@@](O)(C(=O)OC)[C@H](OC(C)=O)[C@]5(CC)C=CCN6CC[C@]43[C@@H]65)C2)C1 [Vincristine]	2/8	38	60	7/10	5/10	19/50	30/50	0,64 g	1,46 g	7,8 gg.	7.8	dying-back type	
II^3 NeuAcGgOse4 Cer [GM1]													inhibits cell growth and induces contact inhibition

— patent US5229373A, “Use of exogenous gangliosides as a protective factor against toxicity by antitumor drug vincristine” (Fidia S.p.A., priority 1986, dated 1993)
